Measurements as given in patent US20040029926A1 (priority 2000, published 2004).

Test: Solubility in water, visual, confirmed by HPLC assay of a saturated solution
Type: physicochemical
Conditions: thermodynamic from solid
Experimental: Solubility of the Nitrate
The visual solubility was confirmed by an HPLC assay of a saturated solution. Solubility: 6 mg/ml.

## CN(CCOc1ccc(CC2SC(=O)NC2=O)cc1)c1ccccn1.O=[N+]([O-])O (stereo not shown) [Nitrate, 5-[4-[2-(N-methyl-N-(2-pyridyl)amino)ethoxy]benzyl]thiazolidine-2,4-dione nitrate]
  solubility: 6000 µg/mL
